Laboratory results as given in PubChem BioAssay AID330 (DTP/NCI, 2004).
Where “and” joins values, the source holds several entries; their conditions need not be identical. Equal values may be shown once. Toxic doses and inconclusive results are not listed.

Test system: P388 leukemia ip, CD2F1 mice, survival T/C
Assay: NCI In Vivo Anticancer Drug Screen. Data for tumor model P388 Leukemia (intraperitoneal) in CD2F1 (CDF1) mice
Conditions: endpoint: median survival time, higher = longer survival
Outline: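 Mice carrying the transplanted tumor received test compound or vehicle. Survival was recorded in each group, and the value is the treated-group measurement divided by that of the vehicle-treated control group.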

[1] = dose: 50.0 mg/kg/injection, schedule: Q01DX005 (ip), vehicle: saline with Tween-80
[2] = dose: 100.0 mg/kg/injection, schedule: Q01DX005 (ip), vehicle: saline with Tween-80
[3] = dose: 50.0 mg/kg/injection, schedule: Q01DX009 (ip), vehicle: Klucel (hydroxypropylcellulose) (HPC)
[4] = dose: 100.0 mg/kg/injection, schedule: Q01DX009 (ip), vehicle: Klucel (hydroxypropylcellulose) (HPC)
[5] = dose: 200.0 mg/kg/injection, schedule: Q01DX009 (ip), vehicle: Klucel (hydroxypropylcellulose) (HPC)
[6] = dose: 100.0 mg/kg/injection, schedule: Q04DX003 (ip), vehicle: Klucel (hydroxypropylcellulose) (HPC)
[7] = dose: 100.0 mg/kg/injection, schedule: Q01DX001 (ip), vehicle: Klucel (hydroxypropylcellulose) (HPC)
[8] = dose: 200.0 mg/kg/injection, schedule: Q01DX001 (ip), vehicle: Klucel (hydroxypropylcellulose) (HPC)
[9] = dose: 400.0 mg/kg/injection, schedule: Q01DX001 (ip), vehicle: Klucel (hydroxypropylcellulose) (HPC)
[10] = dose: 60.0 mg/kg/injection, schedule: Q01DX005 (ip), vehicle: saline with Tween-80
[11] = dose: 120.0 mg/kg/injection, schedule: Q01DX005 (ip), vehicle: saline with Tween-80
[12] = dose: 240.0 mg/kg/injection, schedule: Q01DX005 (ip), vehicle: saline with Tween-80
[13] = dose: 60.0 mg/kg/injection, schedule: Q01DX005 (ip), vehicle: Klucel (hydroxypropylcellulose) (HPC)
[14] = dose: 120.0 mg/kg/injection, schedule: Q01DX005 (ip), vehicle: Klucel (hydroxypropylcellulose) (HPC)
[15] = dose: 240.0 mg/kg/injection, schedule: Q01DX005 (ip), vehicle: Klucel (hydroxypropylcellulose) (HPC)
[16] = dose: 100.0 mg/kg/injection, schedule: Q01DX009 (ip), vehicle: saline with Tween-80
[17] = dose: 200.0 mg/kg/injection, schedule: Q01DX009 (ip), vehicle: saline with Tween-80

CN=C1NS(=O)(=O)c2ccccc21
T/C [1]: 93 % of control
T/C [2]: 108 % of control
T/C (dose: 200.0 mg/kg/injection, schedule: Q01DX005 (ip), vehicle: saline with Tween-80): 97 % of control

Cc1noc2c1N=C(c1ccccc1)CC(c1ccccc1)C2 (stereo not given)
T/C (dose: 25.0 mg/kg/injection, schedule: Q01DX009 (ip), vehicle: Klucel (hydroxypropylcellulose) (HPC)): 104 % of control
T/C [3]: 104 % of control and 111 % of control
T/C [4]: 109 % of control
T/C [5]: 109 % of control

Cc1cc2cc(Cl)c(CN)cc2[nH]1
T/C (dose: 25.0 mg/kg/injection, schedule: Q04DX003 (ip), vehicle: Klucel (hydroxypropylcellulose) (HPC)): 97 % of control
T/C (dose: 50.0 mg/kg/injection, schedule: Q04DX003 (ip), vehicle: Klucel (hydroxypropylcellulose) (HPC)): 102 % of control
T/C [6]: 105 % of control and 107 % of control

CC(C)(C)c1cc2c3c(c1)C(C(F)(F)F)(C(F)(F)F)OS3(=O)(O)OC2(C(F)(F)F)C(F)(F)F
T/C (dose: 25.0 mg/kg/injection, schedule: Q01DX005 (ip), vehicle: saline with Tween-80): 100 % of control
T/C [1]: 98 % of control
T/C [2]: 103 % of control

O=C(/C=C/c1ccccc1OCc1cc2ccccc2nc1Cl)c1ccccc1
T/C (dose: 100.0 mg/kg/injection, schedule: Q01DX001 (ip), vehicle: saline with Tween-80): 87 % of control
T/C (dose: 200.0 mg/kg/injection, schedule: Q01DX001 (ip), vehicle: saline with Tween-80): 90 % of control
T/C (dose: 400.0 mg/kg/injection, schedule: Q01DX001 (ip), vehicle: saline with Tween-80): 90 % of control

CCN(CC)c1c(C)c(-c2ccccc2)n[n+]([O-])c1-c1ccccc1
T/C [7]: 104 % of control
T/C [8]: 107 % of control
T/C [9]: 104 % of control

CN(C)C[N+](C)(C)Cc1ccc(C[N+](C)(C)C[N+](C)(C)Cc2ccc(CCl)cc2)cc1
T/C (dose: 0.19 mg/kg/injection, schedule: Q04DX003 (ip), vehicle: saline): 100 % of control
T/C (dose: 0.39 mg/kg/injection, schedule: Q04DX003 (ip), vehicle: saline): 94 % of control
T/C (dose: 0.78 mg/kg/injection, schedule: Q04DX003 (ip), vehicle: saline): 103 % of control and 88 % of control
T/C (dose: 1.56 mg/kg/injection, schedule: Q04DX003 (ip), vehicle: saline): 88 % of control
T/C (dose: 3.12 mg/kg/injection, schedule: Q04DX003 (ip), vehicle: saline): 99 % of control

O=C1NC(=O)C([N+](=O)[O-])C(=O)N1
T/C (dose: 25.0 mg/kg/injection, schedule: Q01DX001 (ip), vehicle: saline): 100 % of control
T/C (dose: 50.0 mg/kg/injection, schedule: Q01DX001 (ip), vehicle: saline): 108 % of control

CCOP(O)(=S)OCC.[Nd]
T/C [7]: 89 % of control
T/C [8]: 91 % of control
T/C [9]: 99 % of control

CC(=O)Nc1ccc2c(c1)C(=O)c1ccccc1-2
T/C [6]: 100 % of control
T/C (dose: 200.0 mg/kg/injection, schedule: Q04DX003 (ip), vehicle: Klucel (hydroxypropylcellulose) (HPC)): 110 % of control
T/C (dose: 400.0 mg/kg/injection, schedule: Q04DX003 (ip), vehicle: Klucel (hydroxypropylcellulose) (HPC)): 110 % of control

CCSCCNC(=O)[C@@]1(O)[C@H](O)[C@]2(CC)C=CCN3CC[C@@]4(c5cc([C@@]6(OC(C)=O)C[C@H]7C=C(CC)CN(CCc8c6[nH]c6ccccc86)C7)c(OC)cc5N(C)[C@@H]14)[C@@H]32
T/C (dose: 0.5 mg/kg/injection, schedule: Q01DX001 (ip), vehicle: water): 118 % of control
T/C (dose: 1.0 mg/kg/injection, schedule: Q01DX001 (ip), vehicle: water): 118 % of control
T/C (dose: 4.0 mg/kg/injection, schedule: Q01DX001 (ip), vehicle: water): 165 % of control
T/C (dose: 8.0 mg/kg/injection, schedule: Q01DX001 (ip), vehicle: water): 174 % of control

N/C(=N\OC1(c2ccccc2)OC(=O)C(=O)/C1=C(/O)c1ccccc1)c1ccccc1 (stereo not given)
T/C [10]: 102 % of control
T/C [11]: 100 % of control

Cc1ccc2nc(-c3cccc(Cl)c3)oc(=O)c2c1
T/C [3]: 110 % of control
T/C [4]: 102 % of control
T/C [5]: 92 % of control

Cn1c(=O)c2c(Nc3ccccc3)ncnc2n(C)c1=O
T/C (dose: 35.0 mg/kg/injection, schedule: Q01DX005 (ip), vehicle: saline with Tween-80): 87 % of control
T/C (dose: 70.0 mg/kg/injection, schedule: Q01DX005 (ip), vehicle: saline with Tween-80): 87 % of control

CC1(C(F)(F)F)CC(=O)NN1 (stereo not given)
T/C (dose: 25.0 mg/kg/injection, schedule: Q01DX009 (ip), vehicle: saline): 104 % of control
T/C (dose: 50.0 mg/kg/injection, schedule: Q01DX009 (ip), vehicle: saline): 118 % of control

CC(NC(=O)C(=O)c1c[nH]c2ccccc12)C(=O)O (stereo not given)
T/C [10]: 98 % of control
T/C [11]: 96 % of control
T/C [12]: 103 % of control

CN1CCC2(C)CC1Cc1ccc(O)cc12 (stereo not given)
T/C (dose: 3.12 mg/kg/injection, schedule: Q01DX005 (ip), vehicle: saline): 96 % of control
T/C (dose: 6.25 mg/kg/injection, schedule: Q01DX005 (ip), vehicle: saline): 104 % of control
T/C (dose: 12.5 mg/kg/injection, schedule: Q01DX005 (ip), vehicle: saline): 105 % of control
T/C (dose: 25.0 mg/kg/injection, schedule: Q01DX005 (ip), vehicle: saline): 96 % of control

CC(=O)/C(C(=N)C(=O)c1ccccc1)=C(\C)O
T/C [10]: 96 % of control
T/C [11]: 98 % of control
T/C [12]: 99 % of control

COc1ccc2c(c1)NC(C(C)C)=NS2(=O)=O
T/C [13]: 99 % of control
T/C [14]: 95 % of control
T/C [15]: 97 % of control

COc1cccc2c1C(=O)c1c(O)c3c(c(O)c1C2=O)CC(O)(C(C)=O)CC3OC1CC(NC(=O)CN(C)C)C(O)C(C)O1 (stereo not given)
T/C (dose: 0.25 mg/kg/injection, schedule: Q01DX009 (ip), vehicle: water): 109 % of control
T/C (dose: 0.5 mg/kg/injection, schedule: Q01DX009 (ip), vehicle: water): 120 % of control

O=c1[nH]c(=O)n(C2CC(O)C(CO)O2)cc1I (stereo not given)
T/C (dose: 40.0 mg/kg/injection, schedule: Q01DX009 (ip), vehicle: saline with Tween-80): 101 % of control
T/C (dose: 80.0 mg/kg/injection, schedule: Q01DX009 (ip), vehicle: saline with Tween-80): 105 % of control
T/C [16]: 118 % of control
T/C (dose: 100.0 mg/kg/injection, schedule: Q04DX003 (ip), vehicle: saline sonified): 110 % of control
T/C (dose: 160.0 mg/kg/injection, schedule: Q01DX009 (ip), vehicle: saline with Tween-80): 104 % of control
T/C [17]: 118 % of control
T/C (dose: 200.0 mg/kg/injection, schedule: Q04DX003 (ip), vehicle: saline sonified): 120 % of control
T/C (dose: 320.0 mg/kg/injection, schedule: Q01DX009 (ip), vehicle: saline with Tween-80): 122 % of control
T/C (dose: 400.0 mg/kg/injection, schedule: Q01DX009 (ip), vehicle: saline with Tween-80): 118 % of control
T/C (dose: 400.0 mg/kg/injection, schedule: Q04DX003 (ip), vehicle: saline sonified): 120 % of control

CCOC(=O)C[n+]1ccc2cc(OC)c(OC)cc2c1Cc1ccc(OC)c(OC)c1
T/C (dose: 50.0 mg/kg/injection, schedule: Q01DX009 (ip), vehicle: saline with Tween-80): 102 % of control
T/C [16]: 90 % of control
T/C [17]: 90 % of control

C/C1=C\CC(O)/C(C)=C/CC2=CCC(C(C)C)C2(C)CC1 (stereo not given)
T/C (dose: 4.0 mg/kg/injection, schedule: Q01DX009 (ip), vehicle: Klucel (hydroxypropylcellulose) (HPC)): 101 % of control
T/C (dose: 8.0 mg/kg/injection, schedule: Q01DX009 (ip), vehicle: Klucel (hydroxypropylcellulose) (HPC)): 101 % of control
T/C (dose: 16.0 mg/kg/injection, schedule: Q01DX009 (ip), vehicle: Klucel (hydroxypropylcellulose) (HPC)): 102 % of control
T/C (dose: 32.0 mg/kg/injection, schedule: Q01DX009 (ip), vehicle: Klucel (hydroxypropylcellulose) (HPC)): 102 % of control

c1ccc(C2Nc3ccccc3CO2)cc1 (stereo not given)
T/C [13]: 101 % of control
T/C [14]: 99 % of control
T/C [15]: 99 % of control
